System: renal cell carcinoma tissue, Patient Sample GS-640 (kidney tissue)
Test: tumor tissue fragments in three-dimensional gel matrix: cell migration/invasion away from the fragment under chemotherapy
Assay type: cell-based, human
Conditions: 5 days treatment; for number of invading cells: compared with control sample at Day 5; for response of tumor sample to the drug (behavior of cells growing and invading away from the solid tumor fragment): patient renal cell carcinoma fragments in gel matrix, 37 degree Celsius, 5% CO2, compared with untreated control
Source text: FIGS. 1-8 are photographic and photomicrographic images which show, by way of example, use of the means and methods of the present invention with respect to a tissue sample removed from a patient. With respect to FIGS. 1-8, Patient Sample GS-640, comprising kidney tissue, was removed from the patient by a surgeon during surgery.
Tissue analysis and screening in accordance with the invention were requested by the surgeon, and proper consent was obtained from the patient prior to surgical removal of a sample quantity of tissue from the RHS Kidney. The patient was diagnosed with renal cell carcinoma. A tissue sample of approximately 1 gram in quantity was removed from the patient during surgery, and was placed into a 25 ml sample jar, and immersed in sterile saline. The tumor tissue was kept at 4 degrees centigrade until processed for the screening of therapeutic compounds in accordance with the means and methods of the invention. All procedures were performed under sterile conditions in a bio-safety laminar flow hood.
FIG. 1 is a photographic image showing the mechanical division of the sample into portions to be tested. The sample has been prepared by dissecting away any non viable tissue and blood prior to mincing into 1-2 mm pieces using sterile disposable scalpels.
FIG. 2 is a photographic image showing tumor sample portions which have been placed into each well of a 48 well plate, and been submersed in a gel matrix mixture according to the invention. After insertion of the portions, the mixture was allowed to form into a gel at room temperature for approximately 30 minutes. Once the gel formed around the fully immersed tumor fragments, nutrient rich media was added as a liquid overlay that permeated the entire gel and tumor fragment.
Each different chemotherapy and or dose of chemotherapy was added to a set of 6 wells out of the 48-well plate. A total of 7 different chemotherapies were assessed in this plate. One set of six wells were not treated with drug and thus acted as ‘control conditions’ for tumor fragment growth and invasion. Each of the eight vertical lanes containing six separate wells was marked with a symbol for each chemotherapy/dose used and noted correspondingly on data collection sheets. […] The plates were then placed in a conventional 37 degree Celsius incubator at 5% CO2.
This image is thus representative of all wells at Day 0 with or without chemotherapeutics. Images were made with a 400× magnification phase contrast micrograph using ZEISS camera specs.
FIG. 4 is a photomicrographic image which showing a patient control sample (no treatment) after 3 days incubation @37° C. and 5% CO2. Noteworthy is the migration of cells away from the solid tumor mass in a halo around the tumour fragment.
Noteworthy is the halo of cells and increased cell density as compared with the results shown at Day 3 of the test. The lines on the images have been drawn to show the distance measurements within which approximately 95% of the migrating cells have migrated away from the margins of the tissue sample.

SMILES: CC(=O)O[C@@]12CO[C@@H]1C[C@H](O)[C@@]1(C)C(=O)[C@H](O)C3=C(C)[C@@H](OC(=O)[C@H](O)[C@@H](NC(=O)OC(C)(C)C)c4ccccc4)C[C@@](O)([C@@H](OC(=O)c4ccccc4)[C@H]21)C3(C)C [Docetaxol, Docetaxel]
- migratory distance of cells: longer migratory distance than treatment with Taxol
- number of invading cells: fewer number of invading cells than the control
- response of tumor sample to the drug (behavior of cells growing and invading away from the solid tumor fragment): moderate response

SMILES: N.N.[Cl][Pt][Cl] [Cisplatin]
- number of invading cells: identical in appearance and cell numbers to the control sample
- response of tumor sample to the drug (behavior of cells growing and invading away from the solid tumor fragment): failed chemotherapy

SMILES: CC(=O)O[C@H]1C(=O)[C@@]2(C)[C@H]([C@H](OC(=O)c3ccccc3)[C@]3(O)C[C@H](OC(=O)[C@H](O)[C@@H](NC(=O)c4ccccc4)c4ccccc4)C(C)=C1C3(C)C)[C@]1(OC(C)=O)CO[C@@H]1C[C@@H]2O [Taxol, Paclitaxel]
- response of tumor sample to the drug (behavior of cells growing and invading away from the solid tumor fragment): a drop in both the distance and the number of cells that have grown and invaded away from the solid tumor fragment

— patent publication US7977041B2, “Methods and kits for testing the efficacy of therapeutic compounds and other therapies in a three-dimensional matrix with respect to tumorous cells and tissue” (priority 2006, dated 2011)
